Source: US9994594B2, “Inhibitors of arginase and their therapeutic applications” (MARS, INCORPORATED, priority 2010, dated 2018)
Where a name gives a salt, the structure may show the parent alone. Read-outs that look alike come from different tables or passages of the source.

Assays:
human arginase I (ARG I) = target: T1, human arginase I (ARG I) (Homo sapiens, UniProt P05089); experiment: Inhibition of arginase I, spectrophotometric urea assay at 530 nm; format: biochemical; conditions: read-out: Potency (ARG I)
T1 sequence (P05089 1-322): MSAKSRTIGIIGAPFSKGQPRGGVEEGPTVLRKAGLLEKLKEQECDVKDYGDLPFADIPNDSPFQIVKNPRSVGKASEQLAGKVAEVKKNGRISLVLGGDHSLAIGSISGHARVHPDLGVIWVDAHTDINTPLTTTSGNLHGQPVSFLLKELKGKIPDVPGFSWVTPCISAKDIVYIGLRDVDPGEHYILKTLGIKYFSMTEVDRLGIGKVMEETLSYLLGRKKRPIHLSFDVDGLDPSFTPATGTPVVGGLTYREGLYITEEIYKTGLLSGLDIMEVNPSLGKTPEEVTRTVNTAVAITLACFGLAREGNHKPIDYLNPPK
Procedure, shortened: (§1)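 IC50 was derived by regression of OD530 normalized to uninhibited-enzyme controls against log concentration. Urea from 60-min, 37 °C turnover of L-arginine with manganese sulfate was detected after acid o-phthaldialdehyde/primaquine quench and 10 min colour development. Arginase I and II came from 100 ng/ml stocks in pH 7.4 phosphate with ovalbumin.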

arginase II (ARG II) = target: T2, arginase II (ARG II) (Homo sapiens, UniProt P78540); experiment: Inhibition of arginase II, spectrophotometric urea assay at 530 nm; format: biochemical
T2 sequence (P78540 23-354): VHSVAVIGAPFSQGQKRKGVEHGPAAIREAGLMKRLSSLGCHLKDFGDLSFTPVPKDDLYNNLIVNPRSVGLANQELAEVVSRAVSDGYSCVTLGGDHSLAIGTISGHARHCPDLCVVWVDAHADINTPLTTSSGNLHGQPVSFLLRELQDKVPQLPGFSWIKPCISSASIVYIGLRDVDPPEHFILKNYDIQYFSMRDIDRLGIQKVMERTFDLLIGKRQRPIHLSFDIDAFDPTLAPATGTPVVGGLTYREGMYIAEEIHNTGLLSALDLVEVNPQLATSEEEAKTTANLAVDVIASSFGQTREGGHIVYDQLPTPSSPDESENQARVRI
Procedure, shortened: as §1

[1] = Formula I compounds, Table 2, read-out: Potency (ARG II)
[2] = Formula II compounds, Table 2-A
[3] = Formula II compounds, Table 2-A, read-out: Potency (ARG)

Structure (SMILES)	IC50 (human arginase I (ARG I); Formula I compounds, Table 2)	IC50 (arginase II (ARG II); [1])	IC50 (human arginase I (ARG I); [2])	IC50 (arginase II (ARG II); [3])
CC(C)CN[C@H]1C[C@@H](C(N)(CCCCB(O)O)C(=O)O)C1 (stereo partly drawn) [Example 83-A, cis-2-amino-6-borono-2-(3-(isobutylamino)cyclobutyl)hexanoic acid dihydrochloride]	–	–	0.1 to 250 nM	0.1 to 250 nM
NC(CCCCB(O)O)(CNC(c1ccccc1)C(O)c1ccccc1)C(=O)O (stereo in doubt) [compound 89, 2-amino-6-borono-2-(((1R,2S)-2-hydroxy-1,2-diphenylethylamino)methyl)hexanoic acid dihydrochloride]	> 5000 nM	> 5000 nM	–	–
NC(CCCCB(O)O)(C(=O)O)C1CCN(C(=S)Nc2cccc3ccccc23)CC1 (stereo not drawn) [Example 45-A, 2-amino-6-borono-2-(1-(naphthalen-1-ylcarbamothioyl)piperidin-4-yl)hexanoic acid]	–	–	251 to 1000 nM	1000 to 2000 nM
N[C@](CCCCB(O)O)(CCN1CCSCC1)C(=O)O [compound 8, (R)-2-amino-6-borono-2-(2-thiomorpholinoethyl)hexanoic acid dihydrochloride]	1000 to 2000 nM	2000 to 5000 nM	–	–
NC(CCCCB(O)O)(CCN1CCC(F)CC1)C(=O)O (stereo not drawn) [compound 47, 2-amino-6-borono-2-(2-(4-fluoropiperidin-1-yl)ethyl)hexanoic acid dihydrochloride]	1000 to 2000 nM	2000 to 5000 nM	–	–
NC(CCCCB(O)O)(C(=O)O)C1CCN(Cc2cc3c(cc2Cl)OCO3)CC1 (stereo not drawn) [Example 91-A, 2-amino-6-borono-2-(1-((6-chlorobenzo[d][1,3]dioxol-5-yl)methyl)piperidin-4-yl)hexanoic acid dihydrochloride]	–	–	0.1 to 250 nM	251 to 1000 nM
CC(C)CCN1Cc2ccccc2CC1CCC(N)(CCCCB(O)O)C(=O)O (stereo not drawn) [compound 133, 2-amino-6-borono-2-(2-(2-isopentyl-1,2,3,4-tetrahydroisoquinolin-3-yl)ethyl)hexanoic acid dihydrochloride]	0.1 to 250 nM	0.1 to 250 nM	–	–
NC(CCCCB(O)O)(CCN1CCc2[nH][nH]c(=O)c2C1)C(=O)O (stereo not drawn) [compound 30, 2-amino-6-borono-2-(2-(3-oxo-2,3,6,7-tetrahydro-1H-pyrazolo[4,3-c]pyridin-5(4H)-yl)ethyl)hexanoic acid dihydrochloride]	251 to 1000 nM	1000 to 2000 nM	–	–
NC(CCCCB(O)O)(CCN1CCC(C(F)(F)F)CC1)C(=O)O (stereo not drawn) [compound 39, 2-amino-6-borono-2-(2-(4-(trifluoromethyl)piperidin-1-yl)ethyl)hexanoic acid dihydrochloride]	1000 to 2000 nM	2000 to 5000 nM	–	–
CNC(CCCCB(O)O)(CC[C@@H]1CCCN1)C(=O)O (stereo partly drawn) [compound 144, 6-borono-2-(methylamino)-2-(2-((S)-pyrrolidin-2-yl)ethyl)hexanoic acid dihydrochloride]	0.1 to 250 nM	0.1 to 250 nM	–	–
N[C@@H]1CC[C@H]([C@](N)(CCCCB(O)O)C(=O)O)C1 [15-A, (R)-2-amino-2-((1S,3R)-3-aminocyclopentyl)-6-boronohexanoic acid dihydrochloride]	–	–	0.1 to 250 nM	0.1 to 250 nM
C=CCC(N)(CCCCB(O)O)C(=O)O (stereo not drawn) [compound 14, 2-allyl-2-amino-6-boronohexanoic acid]	43 nM	> 5000 nM	–	–
N#Cc1cccc(CN2CCC(C(N)(CCCCB(O)O)C(=O)O)CC2)c1 (stereo not drawn) [Example 106-A, 2-amino-6-borono-2-(1-(3-cyanobenzyl)piperidin-4-yl)hexanoic acid dihydrochloride]	–	–	251 to 1000 nM	251 to 1000 nM
NC(CCCCB(O)O)(CCNCCCc1ccc(Cl)cc1Cl)C(=O)O (stereo not drawn) [compound 66, 2-amino-6-borono-2-(2-(3-(2,4-dichlorophenyl)propylamino)ethyl)hexanoic acid dihydrochloride]	0.1 to 250 nM	0.1 to 250 nM	–	–
NC(CCCCB(O)O)(C(=O)O)C1CCN(C2CCCC2)CC1 (stereo not drawn) [24-A, 2-amino-6-borono-2-(1-cyclopentylpiperidin-4-yl)hexanoic acid dihydrochloride]	–	–	251 to 1000 nM	251 to 1000 nM
NC(CCCCB(O)O)(CNC1CCOCC1)C(=O)O (stereo not drawn) [compound 87, 2-amino-6-borono-2-((tetrahydro-2H-pyran-4-ylamino)methyl)hexanoic acid dihydrochloride]	1000 to 2000 nM	1000 to 2000 nM	–	–
N[C@@](CCCCB(O)O)(C(=O)O)[C@H]1CCN(c2ccc(Cl)cc2)C1 [12-A, (R)-2-amino-6-borono-2-((S)-1-(4-chlorophenyl)pyrrolidin-3-yl)hexanoic acid hydrochloride]	–	–	2000 to 5000 nM	2000 to 5000 nM
NC(CCCCB(O)O)(C(=O)O)C1CCN(Cc2ccccc2-c2cccnc2)CC1 (stereo not drawn) [Example 57-A, 2-amino-6-borono-2-(1-(2-(pyridin-3-yl)benzyl)piperidin-4-yl)hexanoic acid dihydrochloride]	–	–	0.1 to 250 nM	251 to 1000 nM
Cc1ccc(NC(=S)N2CCC(C(N)(CCCCB(O)O)C(=O)O)CC2)cc1Cl (stereo not drawn) [Example 44-A, 2-amino-6-borono-2-(1-(3-chloro-4-methylphenylcarbamothioyl)piperidin-4-yl)hexanoic acid]	–	–	251 to 1000 nM	1000 to 2000 nM
NC(CCCCB(O)O)(Cc1cnc[nH]1)C(=O)O (stereo not drawn) [compound 102, 2-((1H-imidazol-5-yl)methyl)-2-amino-6-boronohexanoic acid dihydrochloride]	2000 to 5000 nM	2000 to 5000 nM	–	–

Other lines, results leading:

IC50 (human arginase I (ARG I); Formula I compounds, Table 2)	IC50 (arginase II (ARG II); [1])	IC50 (human arginase I (ARG I); [2])	IC50 (arginase II (ARG II); [3])	Structure (SMILES)
0.1 to 250 nM	0.1 to 250 nM	–	–	NC(CCCCB(O)O)(CC[C@@H]1CCCN1)C(=O)O (stereo partly drawn) [compound 143, 2-amino-6-borono-2-(2-((S)-pyrrolidin-2-yl)ethyl)hexanoic acid dihydrochloride]
–	–	0.1 to 250 nM	0.1 to 250 nM	NC(CCCCB(O)O)(C(=O)O)C1CCN(CCCc2ccc(Cl)cc2Cl)CC1 (stereo not drawn) [Example 66-A, 2-amino-6-borono-2-(1-(3-(2,4-dichlorophenyl)propyl)piperidin-4-yl)hexanoic acid dihydrochloride]
251 to 1000 nM	1000 to 2000 nM	–	–	NC(CCCCB(O)O)(CCN1CC=C(c2ccccc2)CC1)C(=O)O (stereo not drawn) [compound 28, 2-amino-6-borono-2-(2-(4-phenyl-5,6-dihydropyridin-1(2H)-yl)ethyl)hexanoic acid dihydrochloride]
> 5000 nM	> 5000 nM	–	–	NC(CCCCB(O)O)(CCN1CCC[C@@H]1C(F)(F)F)C(=O)O (stereo partly drawn) [compound 46, 2-amino-6-borono-2-(2-((R)-2-(trifluoromethyl)pyrrolidin-1-yl)ethyl)hexanoic acid dihydrochloride]
0.1 to 250 nM	0.1 to 250 nM	–	–	CN(CCc1ccccc1)CC[C@](N)(CCCCB(O)O)C(=O)O [compound 11, (R)-2-amino-6-borono-2-(2-(methyl(phenethyl)amino)ethyl) hexanoic acid dihydrochloride]
> 5000 nM	> 5000 nM	–	–	NC(CCCCB(O)O)(CCN1CCC(F)(F)C1)C(=O)O (stereo not drawn) [compound 44, 2-amino-6-borono-2-(2-(3,3-difluoropyrrolidin-1-yl)ethyl)hexanoic acid dihydrochloride]
251 to 1000 nM	251 to 1000 nM	–	–	NC(CCCCB(O)O)(CCN1CCC(CO)CC1)C(=O)O (stereo not drawn) [compound 22, 2-amino-6-borono-2-(2-(4-(hydroxymethyl)piperidin-1-yl)ethyl)hexanoic acid]
0.1 to 250 nM	251 to 1000 nM	–	–	NC(CCCCB(O)O)(CCCN1CCCCC1)C(=O)O (stereo not drawn) [compound 147, 2-amino-6-borono-2-(3-(piperidin-1-yl)propyl)hexanoic acid dihydrochloride]
–	–	0.1 to 250 nM	0.1 to 250 nM	N[C@H]1CC[C@H]([C@](N)(CCCCB(O)O)C(=O)O)C1 [16-A, (R)-2-amino-2-((1S,3S)-3-aminocyclopentyl)-6-boronohexanoic acid dihydrochloride]
–	–	0.1 to 250 nM	251 to 1000 nM	NC(CCCCB(O)O)(C(=O)O)[C@H]1C[C@H](NCc2ccccc2)C1 (stereo partly drawn) [Example 75-A, trans-2-amino-2-(3-(benzylamino)cyclobutyl)-6-boronohexanoic acid dihydrochloride]
251 to 1000 nM	251 to 1000 nM	–	–	NC(CCCCB(O)O)(CCN1CCC(c2ccc(Cl)cc2)CC1)C(=O)O (stereo not drawn) [compound 121, 2-amino-6-borono-2-(2-(4-(4-chlorophenyl)piperidin-1-yl)ethyl)hexanoic acid dihydrochloride]
1000 to 2000 nM	2000 to 5000 nM	–	–	CNC(CCCCB(O)O)C(=O)O (stereo not drawn) [compound 146, 6-borono-2-(methylamino)hexanoic acid hydrochloride]
251 to 1000 nM	251 to 1000 nM	–	–	NC(CCCCB(O)O)(CC1CN(CCc2ccc(Cl)cc2Cl)C1)C(=O)O (stereo not drawn) [compound 118, 2-amino-6-borono-2-((1-(2,4-dichlorophenethyl)azetidin-3-yl)methyl)hexanoic acid dihydrochloride]
